Values of other authors in patent US4833152A, “Anti-hypertensive agents” (University of Miami, priority 1987, dated 1989).

Assays:
[1] = 1 mg per ml, pH about 8, as little as 30 minutes, ambient conditions

C[C@H](CS)C(=O)N1CCCC1C(=O)O (stereo in doubt) [SQ14225, D-3-mercapto-2-methylpropanoyl-L-proline]
loss of activity of fresh aqueous solution on standing [1]: substantially less active upon standing for as little as 30 minutes | ACE inhibition, in words (ACE; U.S. Pat. No. 4,046,889, Cushman 1977, Ondetti 1977): highly effective inhibitor

CC(=O)SC[C@@H](C)C(=O)N1CCC[C@H]1C(=O)O [S-acetyl derivative]
potency of the inhibitor on substitution of the sulfhydryl (ACE; relative to free sulfhydryl SQ14225, Cushman et al., Biochemistry): substantially reduced potency of the inhibitor

C[C@H](CSSC[C@@H](C)C(=O)N1CCC[C@H]1C(=O)O)C(=O)N1CCC[C@H]1C(=O)O [disulfide]
inhibitory activity of the disulfide (ACE; disulfide formed by dimerization of SQ14225, believed): largely inactive as an inhibitor
